The subject of one experiment is S. aureus (ATCC 29213). The format is cell-based, Staphylococcus aureus. To be noted: overnight 37°C.
A further experiment relates to MDR S. aureus (CH-11). Format: cell-based, Staphylococcus aureus.
Experiment [1] has as its system Acinetobacter baumannii CH53. Kind of experiment: microbe, parasite or virus in culture.
The subject of experiment [2] is Multi-drug resistant A. baumannii CH-46. Kind of experiment: microbe, parasite or virus in culture. To be noted: Acinetobacter baumannii.
Experiment [3] relates to Acinetobacter baumannii CH52. Kind of experiment: microbe, parasite or virus in culture.
Experiment [4] has as its system Acinetobacter calcoaceticus CH37. Kind of experiment: microbe, parasite or virus in culture.
Experiment [5] relates to Acinetobacter baumannii CH55. Kind of experiment: microbe, parasite or virus in culture.
For experiment [6], the system named is Acinetobacter baumannii CH51. Kind of experiment: microbe, parasite or virus in culture.
Experiment [7] relates to Acinetobacter baumannii CH40. Kind of experiment: microbe, parasite or virus in culture.
The test system of experiment [8] is Acinetobacter modestus CH43. Kind of experiment: microbe, parasite or virus in culture.
The test system of experiment [9] is Acinetobacter baumannii CH50. Kind of experiment: microbe, parasite or virus in culture.
Experiment [10] concerns Acinetobacter baumannii CH36. Kind of experiment: microbe, parasite or virus in culture.
In experiment [11] the test system is Acinetobacter baumannii CH38. Kind of experiment: microbe, parasite or virus in culture.
The subject of experiment [12] is Acinetobacter baumannii CH48. Kind of experiment: microbe, parasite or virus in culture.
Experiment [13] relates to Acinetobacter baumannii CH54. Kind of experiment: microbe, parasite or virus in culture.
In experiment [14] the test system is Acinetobacter baumannii CH39. Kind of experiment: microbe, parasite or virus in culture.
The subject of experiment [15] is Acinetobacter ursingii CH41. Kind of experiment: microbe, parasite or virus in culture.
For experiment [16], the system named is Acinetobacter baumannii CH49. Kind of experiment: microbe, parasite or virus in culture.
Experiment [17] concerns Acinetobacter baumannii CH47. Kind of experiment: microbe, parasite or virus in culture.
Experiment [18] deals with Acinetobacter guillouiae CH42. Kind of experiment: microbe, parasite or virus in culture.
Experiment [19] has as its system Acinetobacter septicus CH44. Kind of experiment: microbe, parasite or virus in culture.
Experiment [20] concerns Acinetobacter baumannii CH45. Kind of experiment: microbe, parasite or virus in culture.
The test system of experiment [21] is S. aureus ATCC 29213 (SA) biofilm. Kind of experiment: Anti-biofilm activity, pre-formed biofilm. The format is cell-based, Staphylococcus aureus. To be noted: only at the highest concentration 100 μg/mL, 4 h, PrestoBlue.
Experiment [22] deals with Acinetobacter baumannii CH51.
For experiment [23], the system named is Acinetobacter baumannii CH55.
Experiment [24] has as its system Acinetobacter baumannii CH36.
Experiment [25] has as its system Acinetobacter baumannii CH40.
The test system of experiment [26] is Acinetobacter guillouiae CH42.
Experiment [27] has as its system Acinetobacter baumannii CH47.
Experiment [28] has as its system Acinetobacter baumannii CH53.
The test system of experiment [29] is Acinetobacter baumannii CH48.
In experiment [30] the test system is Acinetobacter baumannii CH52.
The subject of experiment [31] is Acinetobacter baumannii CH50.
In experiment [32] the test system is Acinetobacter septicus CH44. To be noted: CH44, A. septicus, drug resistance N.
Experiment [33] has as its system Acinetobacter baumannii CH38.
For experiment [34], the system named is Acinetobacter baumannii CH49.
For experiment [35], the system named is Multi-drug resistant A. baumannii CH-46. To be noted: Multi-drug resistant A. baumannii CH-46 (CH46 in Table S1, drug resistance Y); broth microplate dilution.
Experiment [36] deals with Acinetobacter ursingii CH41. To be noted: CH41, A. ursingii, drug resistance N.
The subject of experiment [37] is Acinetobacter baumannii CH45.
Experiment [38] has as its system Acinetobacter calcoaceticus CH37.
In experiment [39] the test system is Acinetobacter baumannii CH54.
The subject of experiment [40] is Acinetobacter baumannii CH39.
In experiment [41] the test system is Acinetobacter modestus CH43.
The next experiment deals with S. aureus ATCC 29213. Kind of experiment: Inhibition of bacterial adhesion, pre-coated polystyrene plates. To be noted: wells pre-treated at 10 μg/mL, washed; bacteria incubated 1 to 24 h at 37°C, PrestoBlue. The format is cell-based, Staphylococcus aureus.

Converted amounts (≈) assume the structure as drawn. Like-named read-outs stand apart in the source and are kept apart here. Positions of bridges follow the written chain, without caps; N, C: chain ends. Non-standard residues stand in square brackets, D forms with d. Residues, ends and D or L forms follow the SMILES beside them. *: point of attachment. X1 = CC[C@H](C)CCCCC(=O)*; Dab = NCC[C@H](N)C(=O)O

As to `COc1cccc(OC)c1C(=O)N[C@@H]1C(=O)N2[C@@H]1SC(C)(C)[C@@H]2C(=O)O` [Methicillin], the “Frequency of Resistance to antibiotics” value with S. aureus (ATCC 29213) (2X MIC in Mueller-Hinton agar, resistant colonies / CFU of inoculum) is given as < 3.72 × 10^–10; in the experiment on S. aureus (ATCC 29213) (3X MIC in Mueller-Hinton agar) it was < 3.72 × 10^–10; in the experiment with S. aureus (ATCC 29213) (4X MIC in Mueller-Hinton agar), < 3.72 × 10^–10; with S. aureus (ATCC 29213) (5X MIC in Mueller-Hinton agar) it was < 3.72 × 10^–10; in the experiment with S. aureus (ATCC 29213) (10X MIC in Mueller-Hinton agar), < 3.72 × 10^–10; with MDR S. aureus (CH-11), “resistant”.
With `C[C@@H](O)[C@H]1C(=O)N2C(C(=O)O)=C(SCCN=CN)C[C@H]12` [Imipenem], the MIC is 31.2 µg/mL (≈ 104 µM) in [1]; 250 µg/mL (≈ 835 µM) in experiment [2]; 31.2 µg/mL (≈ 104 µM) in experiment [3]; 0.5 µg/mL (≈ 1.67 µM) in experiment [4]; 46.9 µg/mL (≈ 157 µM) in experiment [5]; 31.2 µg/mL (≈ 104 µM) in experiment [6]. The MIC in experiment [7] was 31.2 µg/mL (≈ 104 µM); in experiment [8], 0.5 µg/mL (≈ 1.67 µM); in [9], 62.5 µg/mL (≈ 209 µM); in [10], 250 µg/mL (≈ 835 µM); in [11], 125 µg/mL (≈ 418 µM); in experiment [12] it was 7.81 µg/mL (≈ 26.1 µM). The MIC in experiment [13] was found to be 7.81 µg/mL (≈ 26.1 µM); in [14] it was 15.6 µg/mL (≈ 52.2 µM); in experiment [15] it was 1 µg/mL (≈ 3.34 µM); in experiment [16] it was 62.5 µg/mL (≈ 209 µM); in experiment [17], 3.91 µg/mL (≈ 13.1 µM); in experiment [18], 7.81 µg/mL (≈ 26.1 µM). The values for the MIC in experiment [19] and in [20] were 1.46 µg/mL (≈ 4.88 µM) and 125 µg/mL (≈ 418 µM), respectively.
With `CN[C@H](CC(C)C)C(=O)N[C@H]1C(=O)N[C@@H](CC(N)=O)C(=O)N[C@H]2C(=O)N[C@H]3C(=O)N[C@H](C(=O)N[C@H](C(=O)O)c4cc(O)cc(O)c4-c4cc3ccc4O)[C@H](O)c3ccc(c(Cl)c3)Oc3cc2cc(c3O[C@@H]2O[C@H](CO)[C@@H](O)[C@H](O)[C@H]2O[C@H]2C[C@](C)(N)[C@H](O)[C@H](C)O2)Oc2ccc(cc2Cl)[C@H]1O` [vancomycin], the “Effect on viability of pre-formed biofilm” value in [21] is reported as “partially effective”.
Regarding `CC[C@H](C)CCCCC(=O)N[C@@H](CCN)C(=O)N[C@H](C(=O)N[C@@H](CCN)C(=O)N[C@H]1CCNC(=O)[C@H]([C@@H](C)O)NC(=O)[C@H](CCN)NC(=O)[C@H](CCN)NC(=O)[C@H](CC(C)C)NC(=O)[C@@H](CC(C)C)NC(=O)[C@H](CCN)NC1=O)[C@@H](C)O` [Colistin] (X1-[Dab]T[Dab][Dab][Dab][dL]L[Dab][Dab]T; lactam 4-C (inferred); N-terminus assumed), the MIC in experiment [22] was 3.91 µg/mL (≈ 3.34 µM); in [23] it was 7.81 µg/mL (≈ 6.68 µM); in [24], 3.91 µg/mL (≈ 3.34 µM); in [25] it was 5.86 µg/mL (≈ 5.01 µM); in [26] it was 3.91 µg/mL (≈ 3.34 µM); in experiment [27], 3.91 µg/mL (≈ 3.34 µM). For the same molecule, the MIC in [28] came to 3.91 µg/mL (≈ 3.34 µM); in experiment [29], 3.91 µg/mL (≈ 3.34 µM); in [30], 3.91 µg/mL (≈ 3.34 µM); in experiment [31], 5.86 µg/mL (≈ 5.01 µM); in experiment [32], 1.95 µg/mL (≈ 1.67 µM); in [33], 3.91 µg/mL (≈ 3.34 µM). Moreover, the MIC in experiment [34] is 3.91 µg/mL (≈ 3.34 µM); in [35], 3.91 µg/mL (≈ 3.34 µM); in experiment [36], 1.95 µg/mL (≈ 1.67 µM); in experiment [37] it was 3.91 µg/mL (≈ 3.34 µM); in experiment [38], 3.91 µg/mL (≈ 3.34 µM); in experiment [39], 5.86 µg/mL (≈ 5.01 µM). Moreover, the MIC in [40] turned out to be 3.91 µg/mL (≈ 3.34 µM); in experiment [41], 7.81 µg/mL (≈ 6.68 µM).

B1: platelet factor 4: control cationic peptide (protein, UniProt P02776 32-101, looked up)
Platelet factor 4: EAEEDGDLQCLCVKTTSQVRPRHITSLEVIKAGPHCPTAQLIATLKNGRKICLDLQAPLYKKIIKKLLES
Turning to B1, the “Inhibition of cell adhesion / biofilm formation on pre-treated polystyrene wells” value with S. aureus ATCC 29213 was “no effect on biofilm formation”.

Source of the values: paper PMC7721686, “Isolation, Characterization and Structure Elucidation of a Novel Lantibiotic From Paenibacillus sp” (Frontiers in Microbiology, 2020).
